Results published in PubChem BioAssay AID651978 (The Scripps Research Institute Molecular Screening Center, 2013).
Activity calls are given as the source filed them. How the calls were made is not given here.

Columns and labels:
Experiment in all cases: PubChem AID 651978
FASN = details: BW5147 mouse T-cell proteome, ABPP-SILAC LC-MS ratio, at 1 µM, active compounds read low
[1] = target: Monoacylglycerol lipase ABHD6 (Mus musculus) (UniProt Q8R2Y0); details: BW5147 mouse T-cell proteome, ABPP-SILAC LC-MS ratio, at 1 µM, active compounds read low
PRCP = details: BW5147 mouse T-cell proteome, ABPP-SILAC LC-MS ratio, at 1 µM, active compounds read low
LACTB = details: BW5147 mouse T-cell proteome, ABPP-SILAC LC-MS ratio, at 1 µM, active compounds read low
PAFAH1B2 = details: BW5147 mouse T-cell proteome, ABPP-SILAC LC-MS ratio, at 1 µM, active compounds read low
APEH = details: BW5147 mouse T-cell proteome, ABPP-SILAC LC-MS ratio, at 1 µM, active compounds read low
[2] = target: Platelet-activating factor acetylhydrolase 2, cytoplasmic (Mus musculus) (UniProt Q8VDG7); details: BW5147 mouse T-cell proteome, ABPP-SILAC LC-MS ratio; PAFAH2; at 1 µM; active compounds read low
ESD = details: BW5147 mouse T-cell proteome, ABPP-SILAC LC-MS ratio, at 1 µM, active compounds read low
AADACL1 = details: BW5147 mouse T-cell proteome, ABPP-SILAC LC-MS ratio, at 1 µM, active compounds read low
ABHD12 = details: BW5147 mouse T-cell proteome, ABPP-SILAC LC-MS ratio, at 1 µM, active compounds read low
ACOT1 = details: BW5147 mouse T-cell proteome, ABPP-SILAC LC-MS ratio, at 1 µM, active compounds read low
[3] = target: sn-1-specific diacylglycerol lipase ABHD11 (Mus musculus) (UniProt Q8K4F5); details: BW5147 mouse T-cell proteome, ABPP-SILAC LC-MS ratio, at 1 µM, active compounds read low
LYPLA2 = details: BW5147 mouse T-cell proteome, ABPP-SILAC LC-MS ratio, at 1 µM, active compounds read low
ACOT2 = details: BW5147 mouse T-cell proteome, ABPP-SILAC LC-MS ratio, at 1 µM, active compounds read low
[4] = target: Palmitoyl-protein thioesterase ABHD10, mitochondrial (Mus musculus) (UniProt Q6PE15); details: BW5147 mouse T-cell proteome, ABPP-SILAC LC-MS ratio, at 1 µM, active compounds read low
CTSA = details: BW5147 mouse T-cell proteome, ABPP-SILAC LC-MS ratio, at 1 µM, active compounds read low
PNPLA7 = details: BW5147 mouse T-cell proteome, ABPP-SILAC LC-MS ratio, at 1 µM, active compounds read low
PREPL = details: BW5147 mouse T-cell proteome, ABPP-SILAC LC-MS ratio, at 1 µM, active compounds read low
FAAH = details: BW5147 mouse T-cell proteome, ABPP-SILAC LC-MS ratio, at 1 µM, active compounds read low
[5] = target: Acyl-protein thioesterase 1 (Mus musculus) (UniProt P97823); details: BW5147 mouse T-cell proteome, ABPP-SILAC LC-MS ratio; LYPLA1; at 1 µM; active compounds read low
DPP8 = details: BW5147 mouse T-cell proteome, ABPP-SILAC LC-MS ratio, at 1 µM, active compounds read low
PAFAH1B3 = details: BW5147 mouse T-cell proteome, ABPP-SILAC LC-MS ratio, at 1 µM, active compounds read low
DPP7 = details: BW5147 mouse T-cell proteome, ABPP-SILAC LC-MS ratio, at 1 µM, active compounds read low
SIAE = details: BW5147 mouse T-cell proteome, ABPP-SILAC LC-MS ratio, at 1 µM, active compounds read low
DPP4 = details: BW5147 mouse T-cell proteome, ABPP-SILAC LC-MS ratio, at 1 µM, active compounds read low
LIPA = details: BW5147 mouse T-cell proteome, ABPP-SILAC LC-MS ratio, at 1 µM, active compounds read low
[6] = target: Prolyl endopeptidase (Mus musculus) (UniProt Q9QUR6); details: BW5147 mouse T-cell proteome, ABPP-SILAC LC-MS ratio; PREP; at 1 µM; active compounds read low
DPP9 = details: BW5147 mouse T-cell proteome, ABPP-SILAC LC-MS ratio, at 1 µM, active compounds read low
PNPLA6 = details: BW5147 mouse T-cell proteome, ABPP-SILAC LC-MS ratio, at 1 µM, active compounds read low

Sequence of Monoacylglycerol lipase ABHD6 (Mus musculus) (Q8R2Y0 whole entry, looked up): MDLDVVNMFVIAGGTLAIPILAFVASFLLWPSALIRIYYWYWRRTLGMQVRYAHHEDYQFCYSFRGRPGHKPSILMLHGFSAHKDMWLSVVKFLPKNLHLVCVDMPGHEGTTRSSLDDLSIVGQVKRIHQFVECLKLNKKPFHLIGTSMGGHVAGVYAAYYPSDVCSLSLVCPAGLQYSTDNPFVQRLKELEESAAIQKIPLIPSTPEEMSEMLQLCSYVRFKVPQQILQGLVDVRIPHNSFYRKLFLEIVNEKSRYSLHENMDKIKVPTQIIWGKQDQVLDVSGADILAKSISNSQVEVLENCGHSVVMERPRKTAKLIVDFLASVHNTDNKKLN
Sequence of Palmitoyl-protein thioesterase ABHD10, mitochondrial (Mus musculus) (Q6PE15 whole entry, looked up): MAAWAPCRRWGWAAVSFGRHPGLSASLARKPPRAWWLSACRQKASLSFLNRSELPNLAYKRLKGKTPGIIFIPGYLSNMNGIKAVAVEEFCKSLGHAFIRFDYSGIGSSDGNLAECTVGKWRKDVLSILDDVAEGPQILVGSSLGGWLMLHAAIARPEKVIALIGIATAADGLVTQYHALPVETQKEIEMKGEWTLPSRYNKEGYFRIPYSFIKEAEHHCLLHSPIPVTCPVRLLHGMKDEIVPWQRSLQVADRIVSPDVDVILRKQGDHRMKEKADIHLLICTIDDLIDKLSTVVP
Sequence of sn-1-specific diacylglycerol lipase ABHD11 (Mus musculus) (Q8K4F5 whole entry, looked up): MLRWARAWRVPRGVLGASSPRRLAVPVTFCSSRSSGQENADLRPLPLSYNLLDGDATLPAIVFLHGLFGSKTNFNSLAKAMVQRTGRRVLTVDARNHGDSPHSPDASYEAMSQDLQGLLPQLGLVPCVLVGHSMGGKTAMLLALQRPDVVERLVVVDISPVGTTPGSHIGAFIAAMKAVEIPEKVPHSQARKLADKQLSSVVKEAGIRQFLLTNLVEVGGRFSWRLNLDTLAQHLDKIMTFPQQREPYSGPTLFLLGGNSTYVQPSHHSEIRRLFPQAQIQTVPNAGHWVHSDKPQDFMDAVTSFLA
Sequence of Acyl-protein thioesterase 1 (Mus musculus) (P97823 whole entry, looked up): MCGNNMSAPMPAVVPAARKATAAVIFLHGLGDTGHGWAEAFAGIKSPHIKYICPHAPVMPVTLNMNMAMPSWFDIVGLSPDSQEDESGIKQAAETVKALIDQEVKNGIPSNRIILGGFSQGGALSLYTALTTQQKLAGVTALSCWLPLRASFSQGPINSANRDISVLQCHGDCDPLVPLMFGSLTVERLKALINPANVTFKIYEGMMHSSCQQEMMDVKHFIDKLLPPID
Sequence of Prolyl endopeptidase (Mus musculus) (Q9QUR6 whole entry, looked up): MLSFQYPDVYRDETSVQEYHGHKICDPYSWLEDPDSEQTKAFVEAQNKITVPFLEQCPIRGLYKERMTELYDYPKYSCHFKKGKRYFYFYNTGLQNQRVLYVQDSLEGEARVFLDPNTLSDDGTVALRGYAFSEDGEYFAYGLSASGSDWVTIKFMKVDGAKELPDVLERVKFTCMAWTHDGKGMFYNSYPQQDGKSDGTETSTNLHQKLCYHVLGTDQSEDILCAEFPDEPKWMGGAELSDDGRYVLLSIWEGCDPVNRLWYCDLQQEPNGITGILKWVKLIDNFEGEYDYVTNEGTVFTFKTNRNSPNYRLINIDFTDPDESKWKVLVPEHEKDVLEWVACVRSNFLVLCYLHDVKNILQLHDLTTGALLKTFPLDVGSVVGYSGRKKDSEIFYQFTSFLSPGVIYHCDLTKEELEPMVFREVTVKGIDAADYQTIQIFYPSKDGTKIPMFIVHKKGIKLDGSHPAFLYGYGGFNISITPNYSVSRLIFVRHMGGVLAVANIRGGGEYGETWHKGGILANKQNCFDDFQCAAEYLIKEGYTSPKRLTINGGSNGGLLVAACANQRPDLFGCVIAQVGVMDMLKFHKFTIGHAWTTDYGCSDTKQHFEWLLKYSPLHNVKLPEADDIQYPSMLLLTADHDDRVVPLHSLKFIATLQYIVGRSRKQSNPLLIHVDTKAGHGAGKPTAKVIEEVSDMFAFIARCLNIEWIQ
Sequence of Platelet-activating factor acetylhydrolase 2, cytoplasmic (Mus musculus) (Q8VDG7 whole entry, looked up): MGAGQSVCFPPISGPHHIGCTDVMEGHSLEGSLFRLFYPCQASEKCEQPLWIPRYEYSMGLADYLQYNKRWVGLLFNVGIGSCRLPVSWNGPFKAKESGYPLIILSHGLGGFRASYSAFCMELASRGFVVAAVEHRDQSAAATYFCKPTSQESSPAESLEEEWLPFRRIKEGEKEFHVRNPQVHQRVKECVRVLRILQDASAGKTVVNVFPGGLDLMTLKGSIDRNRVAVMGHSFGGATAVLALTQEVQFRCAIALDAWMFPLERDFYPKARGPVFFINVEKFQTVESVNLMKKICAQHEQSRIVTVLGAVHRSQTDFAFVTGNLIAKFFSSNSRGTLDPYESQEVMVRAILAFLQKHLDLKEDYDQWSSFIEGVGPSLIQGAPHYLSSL

## O=C(CN1CCN(C(=O)c2ccco2)CC1)Nc1cc(C(F)(F)F)ccc1Cl
FASN
  light/heavy ratio (remaining activity): 1.1 (inactive)
[1]
  light/heavy ratio (remaining activity): 1.18 (inactive)
PRCP
  light/heavy ratio (remaining activity): 0.97 (inactive)
LACTB
  light/heavy ratio (remaining activity): 1.23 (inactive)
PAFAH1B2
  light/heavy ratio (remaining activity): 1.04 (inactive)
APEH
  light/heavy ratio (remaining activity): 1.06 (inactive)
[2]
  light/heavy ratio (remaining activity): 1.3 (inactive)
ESD
  light/heavy ratio (remaining activity): 1.05 (inactive)
AADACL1
  light/heavy ratio (remaining activity): 1.05 (inactive)
ABHD12
  light/heavy ratio (remaining activity): 1.29 (inactive)
ACOT1
  light/heavy ratio (remaining activity): 1.22 (inactive)
[3]
  light/heavy ratio (remaining activity): 0.74 (inactive)
LYPLA2
  light/heavy ratio (remaining activity): 0.84 (inactive)
ACOT2
  light/heavy ratio (remaining activity): 1.08 (inactive)
[4]
  light/heavy ratio (remaining activity): 0.76 (inactive)
CTSA
  light/heavy ratio (remaining activity): 1.11 (inactive)
PNPLA7
  light/heavy ratio (remaining activity): 1.29 (inactive)
PREPL
  light/heavy ratio (remaining activity): 0.95 (inactive)
FAAH
  light/heavy ratio (remaining activity): 1.19 (inactive)
[5]
  light/heavy ratio (remaining activity): 0.03
DPP8
  light/heavy ratio (remaining activity): 1.08 (inactive)
PAFAH1B3
  light/heavy ratio (remaining activity): 1.04 (inactive)
DPP7
  light/heavy ratio (remaining activity): 0.87 (inactive)
SIAE
  light/heavy ratio (remaining activity): 0.98 (inactive)
DPP4
  light/heavy ratio (remaining activity): 1.24 (inactive)
LIPA
  light/heavy ratio (remaining activity): 1.12 (inactive)
[6]
  light/heavy ratio (remaining activity): 1.08 (inactive)
DPP9
  light/heavy ratio (remaining activity): 1.06 (inactive)
PNPLA6
  light/heavy ratio (remaining activity): 1.2 (inactive)
